Assay results reported in patent publication US4753928A, “Process for obtaining sexual products from mammals suitable for natural or artificial fertilization” (INNOFINANCE Altalanos Innovacios Pengintezet, priority 1985, dated 1988).
Where a SMILES comes first, the peptide text is derived from it. [ ]: non-standard residue; d: D form. pGlu = O=C1CC[C@@H](C(=O)O)N1

Tests used:
red fox males = test: Inducing spermiogenesis of red fox in seasonal oligospermia; assay type: in vivo, Vulpes vulpes
Excerpt: We have attempted to induce spermiogenesis of red fox males kept in Zoo and being in seasonal oligospermia with the aim that pure bred silver and blue foxes kept under farming scale conditions might be inseminated for the production of high-quality hybrid furs. […] Between unoestrus of the various sub-species is a difference of several months (red fox: January; blue fox: April and May). Results of the test were compared to population being in seasonal unoestrus where the average quantity of ejaculate was 2 ml, density 3 and motility 50-60%. This was taken as physiological value. During the test 5 sexually mature red fox males of 8 kg average weight were treated in the month of April, twice weekly with 1, 5, 10, and 50 μg doses of D-Phe^6, Gln^8 -GnRH analogue for seven weeks. On the third week following commencement of treatment sperm sample was taken. In the sample sperm count was 70% of the physiological value, and the number of degenerated sperm was over 40%. Most of the deformed forms were of young formation (plasma droplet of neck and middle part). […] (Males were separated from females, thus they had no opportunity to copulate.) Sperm samples were put into groups according to quality, then put into deep freeze. […] By ejaculating the 5 foxes once each, 56 doses of sperms suitable for fertilizing were obtained. In this way industrial technology service was provided for the production of quality furs.

female lion = assay type: in vivo
Procedure: In our process an intact, fertile female lion belonging to a Zoo was treated, a lioness of 200 kg body weight, which has given litter five times in its life already. Treatments took place twice in every 3 weeks, using D-[…], […] -GnRH analogue. Treatment was timed in such a way that a 50 μg dose was follwed by a 500 μg dose, than a 3-week pause followed. Treatment was carried out with the already mentioned three weeks interval from commencement of oestrus (month of April) until 50 days following end of oestrus typical of the species (August).

female blue fox = test: Treatment of female blue fox in seasonal unoestrus for inducing fertile oestrus; assay type: in vivo
Procedure: Female blue fox in seasonal unoestrus was examined in December under narcosis with the aid of laparoscopy. […] Then the animal had twice daily intramuscular treatment for ten days with a 1 to 5 μg dose of D-Phe^6, Gln^8 -GnRH analogue. On the tenth day another laparoscopy was carried out under narcosis. […] Also in December a rejected female due to mammalian atrophy was similarly treated twice a day with 2 μg each of D-Phe^6, Gln^8 -GnRH analogue the effect of which was followed by looking at changes in condition of the neck of uterus. On the 6th day following first treatment, the neck of uterus opened. At this time the treatment was carried out with 50 μg of active ingredient. 16 hours later conditions of the ovaries were examined with mirroring and a state immediately prior to ovulation was found. Then abdominal cavity was entirely opened, the ovaries were removed and by puncturing ova were removed from a total of 11 Graf-follicles. Six regular, normal ova covered with corona radiata were found.

[1] = test system: ovary of infant domestic cat; test: Stimulating function of ovary in infant domestic cat (D-Phe6,Gln8-GnRH); assay type: in vivo, Felis cattus domesticus; settings: 100 μg i.m. every second day, 4 times; 45 days old kittens
Procedure: 5 kittens each weighing 0.3 kg and being 45 days old were treated with D-Phe^6, Gln^8 -GnRH analogue every second day, altogether 4 times, using 100 μg each of the active ingredient. It was intramuscularly administered after dilution in normal saline solution. Following treatment, ovaries of both sides were removed from the animals under narcosis and visual examination took place. Thereafter the ovaries were fixed in formalin, and then hystological test was carried out. […] Under incrustation developing follicles were found, well definable from the bright, butter-coloured ovary. Some of the follicles were of Graf-follicle size.

infant female rats = test: Super-ovulation induced in infant female rats; assay type: in vivo; settings: out of 60 21-day old rats; i.p., 1-8 days, 1 or 2 μg daily or twice daily, finished with 5 or 10 μg
Procedure: 60 pieces of 21-day old infant rats weighing […] were treated with D-Phe^6 -Gln^8 -GnRH in normal saline solution intraperitoneally. The animals, depending on the treatment they were having, were placed into different groups. In the series of treatments lasting 1-8 days, 1 and 2 μg doses, respectively, were administered daily and twice daily. Treatments were finished with 5 and 10 μg doses, respectively.
After treatment all animals were killed with vapour of ether and their ovaries were removed after the animals died and 24 hours after the last treatment. Evaluation was done visually and from hystological samples. We found several developing follicles in the ovaries of the control animals, but not one of them was of Graf-follicle size, and neither corpur luteum, nor corpus haemorrhagicum could be detected. On the other hand, in all treated groups hormonal effect could be seen which made itself evident by the growing of follicles, by their turning into Graf-follicles, by their ovulation and the forming of regular corpus luteum. Enlarging of the oviduct and the uterus was also evident. […] In the group that received for 4 days 2 μg of GnRH analogue twice daily and on the 4th day the 2 μg treatment was followed by a 10 μg dose, in the ovary of all animals immediately before ovulation softened Graf follicles could be observed in large numbers. […]

barren chinchillas = test: Treatment of chinchilla barren for prolonged time; assay type: in vivo
Procedure: Twenty chinchillas barren for at least two years were treated twice daily for three days with 10 μg each of D-Phe^6, Gln^8 -GnRH analogue through intraperitoneal injection. On the 4th day the animals were injected with 75 μg of GnRH analogue, then they were put together with the male. 12 of the Chinchillas gave birth within 4 months. Parallel with the above treatment, 3 animals barren for more than 2 years having very valuable fur as "black" mutant chinchillas were treated twice daily for three days with 10 μg each of D-Phe^6, Gln^8 -GnRH analogue, administered through peritoneal injection. The animals were injected on the 4th day with 75 μg of GnRH analogue, then, as customary, were put together with the male.

## CC(C)C[C@H](NC(=O)[C@@H](Cc1ccccc1)NC(=O)[C@H](Cc1ccc(O)cc1)NC(=O)[C@H](CO)NC(=O)[C@H](Cc1c[nH]c2ccccc12)NC(=O)[C@H](Cc1c[nH]cn1)NC(=O)[C@@H]1CCC(=O)N1)C(=O)N[C@@H](CCC(N)=O)C(=O)N1CCC[C@H]1C(=O)NCC(N)=O [D-Phe^6, Gln^8 -GnRH analogue, D-Phe^6, Gln^8 -GnRH] ([pGlu]HWSY[dF]LQPG-NH2)
Red fox males; 5 foxes ejaculated once each
  doses of sperms suitable for fertilizing obtained: 56
Red fox males; 7 weeks
  density of ejaculate: 3
Red fox males; 7 weeks, physiological value 50-60%
  sperm motility: 65%
Red fox males; after dilution and deep freeze at -196° C.
  motility after remelting: 45%
Red fox males; third week
  degenerated sperm: over 40%
Red fox males; third week, twice weekly 1, 5, 10 and 50 μg doses
  sperm count relative to the physiological value: 70%
Female lion; 50 μg followed by 500 μg, every 3 weeks, April to August, regular copulation
  pregnancy during treatment (contraception): did not become pregnant
Female lion; in vivo
  behaviour and appearance during treatment: showed no irregularity either in its behaviour or in its appearance
Female blue fox; second female
  regular, normal ova covered with corona radiata found: Six
Female blue fox; second female, 2 μg twice a day
  day on which the neck of uterus opened: 6 days
Female blue fox; second female, 16 hours after 50 μg
  Graf-follicles punctured: 11
Female blue fox; tenth day, same animal
  condition of neck of uterus: the neck of uterus was open
[1]
  corpora haemorrhagica on ovaries of both sides: 5-7
Infant female rats
  animals that did not react to the treatment: 4
Barren chinchillas; 3 animals barren >2 years, same treatment
  black mutant chinchillas that gave birth within four months: all three animals gave birth to young ones
Barren chinchillas; of twenty barren ≥2 years, 10 μg twice daily 3 days i.p., 75 μg on 4th day
  chinchillas that gave birth within 4 months: 12
